# Laboratory results taken from US20230364070A1, “PYRROLO[3,2-C]PYRIDIN-4-ONE DERIVATIVES USEFUL IN THE TREATMENT OF CANCER” (Scorpion Therapeutics, Inc., priority 2020, published 2023).
# Assays:
# Type in all cases: cell-based
# [1] = target: T1, pEGFR in Ba/F3 cells expressing EGFR exon 20 NPG Ins D770_N771 (Homo sapiens, UniProt P00533, INS770NPG); experiment: Inhibitor activity on EGFR phosphorylation (pEGFR AlphaLISA, 2 h), Ba/F3 EGFR exon 20 NPG insertion; conditions: Ba/F3 EGFR exon 20 NPG Ins D770_N771
# T1 construct: expressed in transfected cells; host or cells: Ba/F3 (murine pro-B cells), retroviral transduction, puromycin selection, IL3-independent pool
# Ba/F3 cells with EGFR WT = target: T2, Ba/F3 cells with EGFR WT (Homo sapiens, UniProt P00533); experiment: EGFR activity: Ba/F3 cell viability (CellTiter-Glo, 72 h), EGFR WT; conditions: read-out: BaF3 WT IC50
# T2 construct: expressed in transfected cells; host or cells: Ba/F3 (murine pro-B cells), retroviral transduction, puromycin selection, maintained with EGF
# [2] = target: T3, Ba/F3 cells with EGFR exon 20 NPG Ins D770_N771 (Homo sapiens, UniProt P00533, INS770NPG); experiment: EGFR activity: Ba/F3 cell viability (CellTiter-Glo, 72 h), EGFR exon 20 NPG insertion; conditions: EGFR exon 20 NPG Ins D770_N771, cell viability, read-out: BaF3 NPG IC50
# T3 construct: expressed in transfected cells; host or cells: Ba/F3 (murine pro-B cells), retroviral transduction, puromycin selection, IL3-independent pool
# [3] = target: T4, Ba/F3 cells with EGFR exon 20 ASV Ins V769_D770 (Homo sapiens, UniProt P00533, INS769ASV); experiment: EGFR activity: Ba/F3 cell viability (CellTiter-Glo, 72 h), EGFR exon 20 ASV insertion; conditions: EGFR exon 20 ASV Ins V769_D770, cell viability, read-out: BaF3 ASV IC50
# T4 construct: expressed in transfected cells; host or cells: Ba/F3 (murine pro-B cells), retroviral transduction, puromycin selection, IL3-independent pool
# pEGFR in CUTO14 cells = target: T5, pEGFR in CUTO14 cells (Homo sapiens, UniProt P00533, DUP767-769); experiment: Inhibitor activity on EGFR phosphorylation (pEGFR AlphaLISA, 2 h), CUTO14 cells
# T5 construct: endogenous in cells; host or cells: CUTO14 cells
# Procedure: CUTO14 cells were obtained from Dr. Robert C. Doebele at the University of Colorado.
# Shake 350 rpm for 1 hr in the dark • 3.4 Prepare donor mix under low light conditions prior to use. Dispense 5 μL of donor mix to all the wells. Mix well on the shaker, seal and wrap in aluminum foil and incubate 1.5 hrs at room temperature in the dark • 3.5 Transfer 18.5 μL mixture to OptiPlate 384, and read using an Envision.
# T3 sequence (P00533 with tags, fused parts or gaps INS770NPG): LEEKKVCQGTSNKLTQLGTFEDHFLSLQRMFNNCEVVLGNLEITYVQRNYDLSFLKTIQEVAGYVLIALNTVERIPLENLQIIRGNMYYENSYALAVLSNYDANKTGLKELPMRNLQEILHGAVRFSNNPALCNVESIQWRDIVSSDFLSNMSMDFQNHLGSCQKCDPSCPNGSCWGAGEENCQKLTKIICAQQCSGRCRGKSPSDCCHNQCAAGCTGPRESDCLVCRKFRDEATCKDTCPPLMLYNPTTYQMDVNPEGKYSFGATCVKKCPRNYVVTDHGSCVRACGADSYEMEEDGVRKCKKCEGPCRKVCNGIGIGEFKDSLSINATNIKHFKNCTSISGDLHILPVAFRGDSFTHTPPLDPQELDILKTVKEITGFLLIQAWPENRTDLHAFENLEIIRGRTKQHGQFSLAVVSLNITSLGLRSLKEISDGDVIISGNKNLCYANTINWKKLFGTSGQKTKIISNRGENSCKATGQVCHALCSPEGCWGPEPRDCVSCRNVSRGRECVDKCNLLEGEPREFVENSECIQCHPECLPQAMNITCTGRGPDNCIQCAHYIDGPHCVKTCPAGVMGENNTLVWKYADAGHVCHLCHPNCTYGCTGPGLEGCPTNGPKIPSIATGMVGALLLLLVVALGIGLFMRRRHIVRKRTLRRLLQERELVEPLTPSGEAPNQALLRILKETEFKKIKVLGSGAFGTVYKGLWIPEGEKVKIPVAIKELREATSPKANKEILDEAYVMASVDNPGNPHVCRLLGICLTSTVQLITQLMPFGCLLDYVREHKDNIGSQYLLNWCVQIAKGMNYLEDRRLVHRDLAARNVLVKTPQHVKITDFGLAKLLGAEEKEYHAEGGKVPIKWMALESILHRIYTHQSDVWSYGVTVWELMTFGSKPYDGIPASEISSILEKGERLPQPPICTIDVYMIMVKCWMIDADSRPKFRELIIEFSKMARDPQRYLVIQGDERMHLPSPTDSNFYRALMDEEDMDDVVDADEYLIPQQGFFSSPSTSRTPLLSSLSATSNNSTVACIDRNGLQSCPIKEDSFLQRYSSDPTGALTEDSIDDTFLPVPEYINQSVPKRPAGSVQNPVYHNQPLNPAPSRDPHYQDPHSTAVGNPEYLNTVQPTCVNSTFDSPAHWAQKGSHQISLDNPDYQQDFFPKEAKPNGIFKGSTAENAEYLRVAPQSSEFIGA
# T2 sequence (P00533 25-1210): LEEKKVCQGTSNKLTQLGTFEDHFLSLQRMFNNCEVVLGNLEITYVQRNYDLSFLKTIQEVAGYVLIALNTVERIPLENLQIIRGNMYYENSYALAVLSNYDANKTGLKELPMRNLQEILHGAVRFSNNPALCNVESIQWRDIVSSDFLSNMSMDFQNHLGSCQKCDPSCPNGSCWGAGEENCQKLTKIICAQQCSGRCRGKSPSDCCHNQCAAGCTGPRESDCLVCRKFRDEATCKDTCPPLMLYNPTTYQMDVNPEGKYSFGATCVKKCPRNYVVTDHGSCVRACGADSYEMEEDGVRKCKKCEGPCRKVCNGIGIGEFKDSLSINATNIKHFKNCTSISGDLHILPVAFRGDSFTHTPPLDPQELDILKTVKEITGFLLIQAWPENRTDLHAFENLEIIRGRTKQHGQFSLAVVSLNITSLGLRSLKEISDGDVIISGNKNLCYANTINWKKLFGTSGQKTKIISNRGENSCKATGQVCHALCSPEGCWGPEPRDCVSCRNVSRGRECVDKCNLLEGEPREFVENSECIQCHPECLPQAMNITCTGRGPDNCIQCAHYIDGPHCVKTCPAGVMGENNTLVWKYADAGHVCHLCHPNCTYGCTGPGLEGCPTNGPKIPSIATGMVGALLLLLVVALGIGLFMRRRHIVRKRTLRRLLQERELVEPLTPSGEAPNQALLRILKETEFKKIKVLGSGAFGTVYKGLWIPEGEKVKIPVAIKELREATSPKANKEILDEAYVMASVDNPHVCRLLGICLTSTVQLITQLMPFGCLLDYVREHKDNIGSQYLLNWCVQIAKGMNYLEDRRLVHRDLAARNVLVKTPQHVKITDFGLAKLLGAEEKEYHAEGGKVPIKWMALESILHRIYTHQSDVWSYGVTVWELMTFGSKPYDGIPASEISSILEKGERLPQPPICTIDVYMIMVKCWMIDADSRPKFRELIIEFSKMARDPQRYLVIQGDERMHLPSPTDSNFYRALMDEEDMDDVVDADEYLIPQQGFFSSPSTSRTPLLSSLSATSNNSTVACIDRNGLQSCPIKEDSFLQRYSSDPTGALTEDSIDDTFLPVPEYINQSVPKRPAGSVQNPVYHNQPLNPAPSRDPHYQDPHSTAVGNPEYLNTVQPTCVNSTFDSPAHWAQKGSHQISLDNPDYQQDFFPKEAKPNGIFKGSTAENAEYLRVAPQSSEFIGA
# T5 sequence (P00533 with tags, fused parts or gaps DUP767-769): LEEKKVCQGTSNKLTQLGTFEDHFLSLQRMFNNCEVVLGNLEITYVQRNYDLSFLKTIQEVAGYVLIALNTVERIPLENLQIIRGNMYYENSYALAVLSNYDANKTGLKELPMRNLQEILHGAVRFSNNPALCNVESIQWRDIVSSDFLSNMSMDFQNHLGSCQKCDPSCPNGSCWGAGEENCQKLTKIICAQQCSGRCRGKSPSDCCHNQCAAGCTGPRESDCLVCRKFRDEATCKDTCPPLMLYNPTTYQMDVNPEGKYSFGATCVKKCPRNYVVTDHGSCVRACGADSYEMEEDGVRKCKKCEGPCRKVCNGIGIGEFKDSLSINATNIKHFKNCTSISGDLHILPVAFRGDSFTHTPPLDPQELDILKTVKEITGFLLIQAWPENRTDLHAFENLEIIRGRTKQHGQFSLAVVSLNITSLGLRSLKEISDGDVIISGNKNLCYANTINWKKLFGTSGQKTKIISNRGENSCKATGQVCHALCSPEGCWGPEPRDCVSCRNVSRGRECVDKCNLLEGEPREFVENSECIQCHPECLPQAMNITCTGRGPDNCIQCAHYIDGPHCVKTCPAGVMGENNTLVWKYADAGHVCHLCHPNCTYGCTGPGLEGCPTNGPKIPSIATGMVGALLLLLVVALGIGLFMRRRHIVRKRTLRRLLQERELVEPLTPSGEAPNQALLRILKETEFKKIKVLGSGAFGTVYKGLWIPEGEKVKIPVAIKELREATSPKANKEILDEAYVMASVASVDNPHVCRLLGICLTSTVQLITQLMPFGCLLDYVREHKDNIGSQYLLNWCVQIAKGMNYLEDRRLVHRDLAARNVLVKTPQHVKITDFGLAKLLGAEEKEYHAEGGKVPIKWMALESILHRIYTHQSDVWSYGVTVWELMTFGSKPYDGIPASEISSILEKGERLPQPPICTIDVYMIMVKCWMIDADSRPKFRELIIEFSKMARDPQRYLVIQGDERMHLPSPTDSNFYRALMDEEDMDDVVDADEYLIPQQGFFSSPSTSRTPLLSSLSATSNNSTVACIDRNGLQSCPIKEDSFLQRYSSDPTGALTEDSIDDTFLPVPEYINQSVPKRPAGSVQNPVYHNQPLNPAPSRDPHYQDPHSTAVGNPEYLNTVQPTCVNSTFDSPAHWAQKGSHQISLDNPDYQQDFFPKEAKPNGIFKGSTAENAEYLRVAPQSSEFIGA
# T4 sequence (P00533 with tags, fused parts or gaps INS769ASV): as the sequence (P00533 with tags, fused parts or gaps DUP767-769) above
Structure (SMILES),IC50 [1],IC50 (Ba/F3 cells with EGFR WT),IC50 [2],IC50 [3],IC50 (pEGFR in CUTO14 cells)
"COc1c(Cl)cccc1Nc1c(-c2ccncc2OC[C@@H]2CCN2S(C)(=O)=O)[nH]c2c1C(=O)NCC2 [compound 192, 3-[(3-chloro-2-methoxyphenyl)amino]-2-(3-{[(2S)-1-methanesulfonylazetidin-2-yl]methoxy}pyridin-4-yl)-1H,5H,6H,7H-pyrrolo[3,2-c]pyridin-4-one]",< 100 nM,,,,
COc1c(Cl)cccc1Nc1c(-c2ccncc2OC[C@@]2(C)CCN2C(=O)/C=C/CN(C)C)[nH]c2c1C(=O)NCC2 [compound 425],,100 to 1000 nM,< 100 nM,< 100 nM,< 100 nM
CCc1c(F)cccc1Nc1c(-c2ccncc2OC[C@@]2(C)CCN2C(=O)/C=C/CN(C)C)[nH]c2c1C(=O)NCC2 [compound 426],,100 to 1000 nM,< 100 nM,< 100 nM,< 100 nM
CCc1c(F)cccc1Nc1c(-c2ccncc2OC[C@]2(C)CCN2C(=O)/C=C/CN(C)C)[nH]c2c1C(=O)NCC2 [compound 427],,100 to 1000 nM,< 100 nM,< 100 nM,< 100 nM
CC#CC(=O)N1CCOC[C@H]1COc1cnccc1-c1[nH]c2c(c1Nc1cccc(Cl)c1OC)C(=O)NCC2 [compound 429],,100 to 1000 nM,< 100 nM,100 to 1000 nM,100 to 1000 nM
C=CC(=O)N1CCC[C@]1(C)C#Cc1cnccc1-c1[nH]c2c(c1Nc1cc(F)cc(Cl)c1OC)C(=O)NCC2 [compound 430],,100 to 1000 nM,< 100 nM,< 100 nM,< 100 nM
CC#CC(=O)N1CCC[C@]1(C)C#Cc1cnccc1-c1[nH]c2c(c1Nc1cc(F)cc(Cl)c1OC)C(=O)NCC2 [compound 431],,100 to 1000 nM,< 100 nM,< 100 nM,< 100 nM
COc1c(Cl)cccc1Nc1c(-c2ccncc2C#C[C@@]2(C)CCCN2C(=O)C#CCN(C)C)[nH]c2c1C(=O)NCC2 [compound 433],,100 to 1000 nM,< 100 nM,< 100 nM,< 100 nM
COc1c(F)cccc1Nc1c(-c2ccncc2C#C[C@@]2(C)CCCN2C(=O)C#CCN(C)C)[nH]c2c1C(=O)NCC2 [compound 434],,100 to 1000 nM,< 100 nM,< 100 nM,< 100 nM
COc1c(Cl)cc(F)cc1Nc1c(-c2ccncc2C#C[C@@]2(C)CCCN2C(=O)/C=C/CN(C)C)[nH]c2c1C(=O)NCC2 [compound 435],,100 to 1000 nM,< 100 nM,< 100 nM,< 100 nM
COc1c(Cl)cccc1Nc1c(-c2ccncc2C#CC23CC(CN2C(=O)/C=C/CN(C)C)C3)[nH]c2c1C(=O)NCC2 [compound 436],,100 to 1000 nM,< 100 nM,< 100 nM,< 100 nM
COc1c(F)cccc1Nc1c(-c2ccncc2C#CC23CC(CN2C(=O)/C=C/CN(C)C)C3)[nH]c2c1C(=O)NCC2 [compound 437],,100 to 1000 nM,< 100 nM,< 100 nM,< 100 nM
C=CC(=O)NC1(C#Cc2cnccc2-c2[nH]c3c(c2Nc2cc(F)cc(Cl)c2OC)C(=O)NCC3)COC1 [compound 440],,100 to 1000 nM,< 100 nM,< 100 nM,< 100 nM
COc1c(F)cccc1Nc1c(-c2ccncc2C#C[C@@]2(C)CCCN2C(=O)/C=C/CN2CC(OC)C2)[nH]c2c1C(=O)NCC2 [compound 441],,100 to 1000 nM,< 100 nM,< 100 nM,< 100 nM
COc1c(F)cccc1Nc1c(-c2ccncc2C#C[C@@]2(C)CCCN2C(=O)/C=C/CN2CCOCC2)[nH]c2c1C(=O)NCC2 [compound 442],,> 1000 nM,100 to 1000 nM,100 to 1000 nM,100 to 1000 nM
COc1c(F)cccc1Nc1c(-c2ccncc2C#C[C@@]2(C)CCCN2C(=O)/C=C/CN2CC[C@H](OC)C2)[nH]c2c1C(=O)NCC2 [compound 443],,100 to 1000 nM,< 100 nM,< 100 nM,< 100 nM
COc1c(F)cccc1Nc1c(-c2ccncc2C#C[C@@]2(C)CCCN2C(=O)/C=C/CN2CC[C@@H](OC)C2)[nH]c2c1C(=O)NCC2 [compound 444],,100 to 1000 nM,< 100 nM,< 100 nM,< 100 nM
COc1c(F)cccc1Nc1c(-c2ccncc2C#C[C@@]2(C)CCCN2C(=O)/C=C/CN2CC(F)(F)C2)[nH]c2c1C(=O)NCC2 [compound 445],,> 1000 nM,100 to 1000 nM,100 to 1000 nM,100 to 1000 nM
